Experimental data taken from US7247644B2, “Ester derivatives of a decahydroisoquinoline-3-carboxylic acid as analgestics” (Eli Lilly and Company, priority 2003, dated 2007).

Assays:
Format in all cases: in vivo
[1] = Bioavailability in Dogs: plasma concentrations of parent acid by LC/MS/MS; conditions: both sexes, dog, iv; Compound A in plasma, Beagle dogs, 1 mg/kg
Protocol: (§1) Percent bioavailability is determined using the following equation:
(§2) [formula] wherein AUC represents the area under the curve, p.o. represents oral dose, and i.v. represents intravenous dose. Bioavailability in Dogs:
Beagle dogs (2 male and 1 female) are administered an oral dose, and later an iv dose of (3S,4aR,6R,8aR)-6-[2-(1(2)H-tetrazole-5-yl)ethyl-1,2,3,4,4a,5,6,7,8,8a-decahydroisoquinoline-3-carboxylic acid (10 mg/Kg p.o; 1 mg/Kg i.v.) to determine oral bioavailability. Subsequently, the same three dogs are administered an oral 10 mg/kg dose of an ester prodrug (for example (3S,4aR,6R,8aR)-6-[2-(1(2)H-tetrazole-5-yl)ethyl-1,2,3,4,4a,5,6,7,8,8a-decahydroisoquinoline-3-carboxylic acid ethyl ester, HCL salt) to determine whether the prodrug would increase bioavailability of the parent acid. The plasma concentrations of (3S,4aR,6R,8aR)-6-[2-(1(2)H-tetrazole-5-yl)ethyl-1,2,3,4,4a,5,6,7,8,8a-decahydroisoquinoline-3-carboxylic acid are determined by LC/MS/MS.
Live Phase: (3S,4aR,6R,8aR)-6-[2-(1(2)H-tetrazole-5-yl)ethyl-1,2,3,4,4a,5,6,7,8,8a-decahydroisoquinoline-3-carboxylic acid (HCl salt) is dissolved in dilute sodium hydroxide for oral administration (30 mg/ml) and in 10% ethanol/water for iv administration (10 mg/ml). […]

[2] = Bioavailability in Cynomolgus Monkeys: plasma concentrations of parent acid by LC/MS/MS; conditions: both sexes, cynomolgus monkey, iv, 0.3 mg/kg, Compound A in plasma, .3 mg/kg
Protocol: as §1, §2
Two male and two female monkeys are administered an oral, and later, an iv dose of (3S,4aR,6R,8aR)-6-[2-(1(2)H-tetrazole-5-yl)ethyl-1,2,3,4,4a,5,6,7,8,8a-decahydroisoquinoline-3-carboxylic acid (oral: 3 mg/kg; iv: 0.3 mg/kg) to determine oral bioavailability. The same animals are also subsequently administered an oral 3 mg/kg dose of (3S,4aR,6R,8aR)-6-[2-(1(2)H-tetrazole-5-yl)ethyl-1,2,3,4,4a,5,6,7,8,8a-decahydroisoquinoline-3-carboxylic acid ethyl ester to determine if the ester prodrug form increases bioavailability of the parent acid. The plasma concentrations of the parent acid are determined by LC/MS/MS.
Four cynomolgus monkeys (2/sex) are given a single oral dose of (3S,4aR,6R,8aR)-6-[2-(1(2)H-tetrazole-5-yl)ethyl-1,2,3,4,4a,5,6,7,8,8a-decahydroisoquinoline-3-carboxylic acid (3 mg/kg) on day 0, a single iv dose of (3S,4aR,6R,8aR)-6-[2-(1(2)H-tetrazole-5-yl)ethyl-1,2,3,4,4a,5,6,7,8,8a-decahydroisoquinoline-3-carboxylic acid (0.3 mg/kg) on day 4 and a single oral dose of (3S,4aR,6R,8aR)-6-[2-(1(2)H-tetrazole-5-yl)ethyl-1,2,3,4,4a,5,6,7,8,8a-decahydroisoquinoline-3-carboxylic acid ethyl ester (3 mg/kg) on day 8. […]

[3] = Bioavailability in Rats: plasma concentrations of parent acid by LC/MS/MS; conditions: male, rat, iv; Compound A in plasma, Fischer rats, 10 mg/kg
Protocol: as §1, §2
Male Fischer Rats are administered either an oral or iv dose of (3S,[…])-6-[2-(1(2)H-tetrazole-5-yl)ethyl-1,2,3,4,4a,5,6,7,8,8a-decahydroisoquinoline-3-carboxylic acid (10 mg/Kg) to determine oral bioavailability. A separate group of rats are administered an oral 10 mg/kg dose of an ester prodrug (for example (3S,4aR,6R,8aR)-6-[2-(1(2)H-tetrazole-5-yl)ethyl-1,2,3,4,4a,5,6,7,8,8a-decahydroisoquinoline-3-carboxylic acid ethyl ester, HCL salt) to determine whether the prodrug would increase bioavailability of the parent acid. The plasma concentrations of (3S,4aR,6R,8aR)-6-[2-(1(2)H-tetrazole-5-yl)ethyl-1,2,3,4,4a,5,6,7,8,8a-decahydroisoquinoline-3-carboxylic acid are determined by LC/MS/MS.

- AUC [1]: 4220 ng·h/mL
- Cmax [1]: 2820 ng/mL
- AUC [2]: 1080 ng·h/mL
- Cmax [2]: 1620 ng/mL
- AUC [3]: 6730 ng·h/mL
- Cmax [3]: 11000 ng/mL
Structure (SMILES): O=C(O)[C@@H]1C[C@H]2C[C@@H](CCc3nn[nH]n3)CC[C@H]2CN1 [Compound A]
